Experimental data: ChEMBL document CHEMBL3621077, “Synthesis of hybrid anticancer agents based on kinase and histone deacetylase inhibitors” (Medchemcomm, 2014)
Active and inactive are the calls of the source. The calls are words filed in the database; no cut-off is given here.

Columns and labels:
[1] = Cytotoxicity against human Hs 578T cells; format: functional
[2] = test system: KM12; experiment: Cytotoxicity against human KM12 cells; format: functional
[3] = test system: CCRF-CEM; experiment: Cytotoxicity against human CCRF-CEM cells; format: functional
[4] = target: Vascular endothelial growth factor receptor 2 (Homo sapiens, UniProt P35968); experiment: Inhibition of VEGFR2 (unknown origin); settings: read-out: IC50
[5] = test system: MDA-MB-231; experiment: Cytotoxicity against human MDA-MB-231 cells assessed as reduction of cell viability after 72 hrs by MTT assay; format: functional, cell-based; settings: MDA-MB-231, 72 h
[6] = species: Xenopus laevis; experiment: Inhibition of angiogenesis in Xenopus laevis embryo heart assessed as effect on Egfl7 expression in intersomitic vessels at 100 uM at stage 9 incubated for 72 hrs until stage 38 measured by WISH method; format: functional, organism-based; settings: Intersomitic vessel
[7] = test system: NCI-H522; experiment: Cytotoxicity against human NCI-H522 cells; format: functional
[8] = test system: RPMI-8226; experiment: Cytotoxicity against human RPMI8226 cells; format: functional
[9] = test system: MDA-MB-231; experiment: Cytotoxicity against human MDA-MB-231 cells assessed as reduction of cell viability at 200 uM after 72 hrs by MTT assay relative to control; format: functional
[10] = test system: SK-OV-3; experiment: Cytotoxicity against human SKOV3 cells; format: functional
[11] = test system: SF-268; experiment: Cytotoxicity against human SF268 cells; format: functional
[12] = test system: HCT-116; experiment: Cytotoxicity against human HCT116 cells; format: functional
[13] = test system: MDA-MB-468; experiment: Cytotoxicity against human MDA-MB-468 cells; format: functional
[14] = test system: UACC-257; experiment: Cytotoxicity against human UACC257 cells; format: functional
[15] = target: T1, Histone deacetylase 7 (Homo sapiens, UniProt Q8WUI4); experiment: Inhibition of HDAC7 (unknown origin)
T1 sequence (Q8WUI4 whole entry): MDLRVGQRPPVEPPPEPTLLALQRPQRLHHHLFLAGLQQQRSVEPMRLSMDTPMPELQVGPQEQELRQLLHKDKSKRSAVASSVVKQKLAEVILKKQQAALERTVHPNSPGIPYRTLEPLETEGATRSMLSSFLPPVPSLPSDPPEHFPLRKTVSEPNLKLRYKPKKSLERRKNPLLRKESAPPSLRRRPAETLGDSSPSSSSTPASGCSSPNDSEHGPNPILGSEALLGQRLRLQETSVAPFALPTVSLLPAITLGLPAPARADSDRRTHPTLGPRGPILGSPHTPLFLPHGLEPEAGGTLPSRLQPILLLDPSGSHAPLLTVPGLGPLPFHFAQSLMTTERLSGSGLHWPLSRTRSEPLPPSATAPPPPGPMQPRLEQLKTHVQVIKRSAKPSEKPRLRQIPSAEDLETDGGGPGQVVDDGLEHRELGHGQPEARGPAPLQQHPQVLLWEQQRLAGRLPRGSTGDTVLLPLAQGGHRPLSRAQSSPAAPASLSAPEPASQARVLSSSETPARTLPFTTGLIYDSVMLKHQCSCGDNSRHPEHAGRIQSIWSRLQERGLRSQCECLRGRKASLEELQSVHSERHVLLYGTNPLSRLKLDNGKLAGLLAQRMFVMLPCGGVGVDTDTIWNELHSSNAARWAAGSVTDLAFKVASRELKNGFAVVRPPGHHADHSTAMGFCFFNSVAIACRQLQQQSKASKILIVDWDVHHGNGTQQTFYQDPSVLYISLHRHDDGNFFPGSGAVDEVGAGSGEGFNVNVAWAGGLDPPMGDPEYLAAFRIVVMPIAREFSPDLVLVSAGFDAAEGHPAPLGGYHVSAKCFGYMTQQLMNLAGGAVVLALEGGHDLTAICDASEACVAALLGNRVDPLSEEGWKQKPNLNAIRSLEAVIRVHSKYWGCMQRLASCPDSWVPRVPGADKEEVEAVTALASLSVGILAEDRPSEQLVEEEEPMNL

[16] = target: T2, Protein deacetylase HDAC6 (Homo sapiens, UniProt Q9UBN7); experiment: Inhibition of HDAC6 (unknown origin); settings: read-out: IC50
T2 sequence (Q9UBN7 whole entry): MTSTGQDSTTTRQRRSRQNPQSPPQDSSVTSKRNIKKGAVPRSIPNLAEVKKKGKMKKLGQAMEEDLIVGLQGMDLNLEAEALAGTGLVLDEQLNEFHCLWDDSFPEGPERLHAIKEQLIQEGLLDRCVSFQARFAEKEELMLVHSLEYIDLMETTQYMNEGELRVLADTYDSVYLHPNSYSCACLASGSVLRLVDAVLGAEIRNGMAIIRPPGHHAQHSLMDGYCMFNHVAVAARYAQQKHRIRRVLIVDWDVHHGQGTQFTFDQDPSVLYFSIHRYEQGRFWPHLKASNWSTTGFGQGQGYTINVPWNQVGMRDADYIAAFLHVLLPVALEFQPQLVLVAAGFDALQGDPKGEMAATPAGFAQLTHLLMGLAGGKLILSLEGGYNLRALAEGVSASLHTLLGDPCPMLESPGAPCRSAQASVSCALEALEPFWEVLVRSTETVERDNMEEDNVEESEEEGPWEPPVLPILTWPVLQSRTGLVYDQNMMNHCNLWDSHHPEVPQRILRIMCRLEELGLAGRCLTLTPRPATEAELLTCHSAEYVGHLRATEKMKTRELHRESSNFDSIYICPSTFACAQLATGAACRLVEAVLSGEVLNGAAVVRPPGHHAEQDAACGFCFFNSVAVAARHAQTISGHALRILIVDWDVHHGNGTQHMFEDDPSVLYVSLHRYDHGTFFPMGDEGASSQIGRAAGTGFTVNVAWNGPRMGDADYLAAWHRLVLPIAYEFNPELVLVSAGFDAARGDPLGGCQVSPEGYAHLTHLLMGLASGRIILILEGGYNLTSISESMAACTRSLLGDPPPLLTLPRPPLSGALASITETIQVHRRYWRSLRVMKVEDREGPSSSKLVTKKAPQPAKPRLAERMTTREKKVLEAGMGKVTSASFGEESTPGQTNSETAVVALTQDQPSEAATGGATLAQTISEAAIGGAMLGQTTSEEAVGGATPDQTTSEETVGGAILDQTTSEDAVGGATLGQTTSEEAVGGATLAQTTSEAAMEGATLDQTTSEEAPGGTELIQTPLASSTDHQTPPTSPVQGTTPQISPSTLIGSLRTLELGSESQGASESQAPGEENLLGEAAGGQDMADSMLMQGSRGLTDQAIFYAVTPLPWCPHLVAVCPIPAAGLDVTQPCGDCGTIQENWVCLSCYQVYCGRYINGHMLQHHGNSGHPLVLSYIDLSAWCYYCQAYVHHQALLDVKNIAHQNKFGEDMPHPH

[17] = test system: BT-549; experiment: Cytotoxicity against human BT549 cells; format: functional
[18] = species: Xenopus laevis; experiment: Inhibition of angiogenesis in Xenopus laevis embryo heart assessed as reduction in tube formation at 100 uM at stage 9 incubated for 72 hrs until stage 38 measured by WISH method; format: functional, organism-based
[19] = test system: HCC 2998; experiment: Cytotoxicity against human HCC2998 cells; format: functional
[20] = test system: HOP-92; experiment: Cytotoxicity against human HOP92 cells; format: functional
[21] = Cytotoxicity against human NCI-ADR-RES cells; format: functional
[22] = test system: DU-145; experiment: Cytotoxicity against human DU145 cells; format: functional

Chain of Vascular endothelial growth factor receptor 2 (P35968 whole entry): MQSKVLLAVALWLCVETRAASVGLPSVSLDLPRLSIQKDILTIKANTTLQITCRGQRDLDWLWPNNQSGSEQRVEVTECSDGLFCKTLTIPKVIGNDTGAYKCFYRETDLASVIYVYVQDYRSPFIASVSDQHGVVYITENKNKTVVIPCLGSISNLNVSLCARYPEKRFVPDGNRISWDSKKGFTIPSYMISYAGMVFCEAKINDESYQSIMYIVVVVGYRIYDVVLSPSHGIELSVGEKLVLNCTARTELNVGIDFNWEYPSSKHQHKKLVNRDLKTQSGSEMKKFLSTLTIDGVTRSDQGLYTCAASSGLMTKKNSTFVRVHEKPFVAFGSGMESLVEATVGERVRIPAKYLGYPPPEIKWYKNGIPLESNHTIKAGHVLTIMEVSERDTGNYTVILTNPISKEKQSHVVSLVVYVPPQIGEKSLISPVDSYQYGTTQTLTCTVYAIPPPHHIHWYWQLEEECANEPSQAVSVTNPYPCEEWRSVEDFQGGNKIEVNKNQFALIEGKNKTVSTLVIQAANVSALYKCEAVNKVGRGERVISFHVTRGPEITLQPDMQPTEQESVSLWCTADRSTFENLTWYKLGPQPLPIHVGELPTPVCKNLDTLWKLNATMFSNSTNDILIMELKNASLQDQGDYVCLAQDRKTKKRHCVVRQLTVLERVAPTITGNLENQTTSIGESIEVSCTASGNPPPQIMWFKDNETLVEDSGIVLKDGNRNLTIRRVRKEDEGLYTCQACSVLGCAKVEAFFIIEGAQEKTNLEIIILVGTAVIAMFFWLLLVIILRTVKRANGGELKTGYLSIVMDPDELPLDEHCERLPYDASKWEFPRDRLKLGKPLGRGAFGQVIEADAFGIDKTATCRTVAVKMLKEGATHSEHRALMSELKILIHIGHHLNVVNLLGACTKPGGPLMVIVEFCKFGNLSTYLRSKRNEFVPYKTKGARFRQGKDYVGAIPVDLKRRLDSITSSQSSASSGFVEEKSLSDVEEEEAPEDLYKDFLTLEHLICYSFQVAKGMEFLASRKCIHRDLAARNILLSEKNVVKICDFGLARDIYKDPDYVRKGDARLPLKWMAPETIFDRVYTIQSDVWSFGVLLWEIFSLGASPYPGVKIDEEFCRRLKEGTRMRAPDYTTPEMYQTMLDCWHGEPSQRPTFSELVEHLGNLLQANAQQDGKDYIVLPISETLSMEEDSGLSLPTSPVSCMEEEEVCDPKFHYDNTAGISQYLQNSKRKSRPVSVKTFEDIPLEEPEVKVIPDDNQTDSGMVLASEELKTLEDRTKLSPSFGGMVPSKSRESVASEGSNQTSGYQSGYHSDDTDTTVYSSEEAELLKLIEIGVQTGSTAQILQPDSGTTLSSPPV

O=C(CCCCCCC(=O)Nc1ccc2c(c1)/C(=C/c1ccc[nH]1)C(=O)N2)NO
GI50 [1]: 1020 nM | GI50 [2]: 960 nM | GI50 [3]: 102 nM | IC50 [4]: 237 nM | IC50 [5]: 29000 nM | inhibition [6]: inactive | GI50 [7]: 87 nM | GI50 [8]: 2920 nM | Activity [9]: 30% | GI50 [10]: 363 nM | GI50 [11]: 1190 nM | GI50 [12]: 238 nM | GI50 [13]: 194 nM | GI50 [14]: 370 nM | IC50 [15]: Not Active | IC50 [16]: 0.323 nM | GI50 [17]: 1940 nM | Activity [18]: inactive | GI50 [19]: 1640 nM | GI50 [20]: 412 nM | GI50 [21]: 4000 nM | GI50 [22]: 1020 nM
